“And” between values parts separate entries of the source, which are not always exact repeats. Equal values may be shown once.
Tests used:
Type in all cases: toxicity, cell-based
HEK-293T = assay: Incucyte cell viability with HEK293T; conditions: human, 24 h, 10 µM, compound concentration 10 uM
Fibroblast = assay: Incucyte cell viability with human fibroblast; conditions: 24 h, 10 µM, compound concentration 10 uM
U2OS = assay: Incucyte cell viability with U2OS; conditions: human, 24 h, 10 µM, compound concentration 10 uM
Also: unitless GR value; below 1 slowed growth and below 0 cell loss.

Compound	Growth Rate (HEK-293T; replicate number 1)	Growth Rate (HEK-293T; replicate number 2)	Growth Rate (Fibroblast; replicate number 1)	Growth Rate (Fibroblast; replicate number 2)	Growth Rate (U2OS; replicate number 1)	Growth Rate (U2OS; replicate number 2)
CC(C)n1nc(-c2cc3cc(O)ccc3[nH]2)c2c(N)ncnc21	-0.17	-0.09	0.59	0.98	-0.49	-0.01
CC(=O)Nc1ccc(OC[C@](C)(O)C(=O)Nc2ccc([N+](=O)[O-])c(C(F)(F)F)c2)cc1	0.72	0.87	0.07	1	1	0.76
Oc1ccc(-c2c(-c3ccccc3)nn3c(C(F)(F)F)cc(C(F)(F)F)nc23)cc1	1	0.97	1	0.27	1	
COc1ccc(N(C(=O)Oc2c(C)cccc2C)c2ccnc(Nc3ccc(N4CCN(C)CC4)cc3)n2)c(OC)c1	0.49	0.97	0.52	1	0.04	0.72
CCN(CC)S(=O)(=O)c1cc(Nc2nccc(-c3ccnc(-c4ccc(NC(=O)NC)cc4)c3)n2)ccc1Cl	-0.42	-0.23	0.14	-0.71	-0.05	0.12
CC(C)N(CCCNC(=O)Nc1ccc(C(C)(C)C)cc1)C[C@H]1O[C@@H](n2ccc3c(N)ncnc32)[C@H](O)[C@@H]1O	0.74	0.84	1		1	0.59
O=C(COc1ccc(-c2oc3cc(O)c(C(=O)O)cc3c2C#Cc2cccc(Cl)c2)cc1)NC1CC1	0.87	0.84	0.84	-0.06	0.39	0.84
O=C(C=Cc1ccc(O)cc1)c1ccc(O)cc1O	0.72	0.82	0.64	1	0.9	0.75
Nc1c[nH]c(=O)c2cc(-c3ccccc3)sc12	0.88	0.73	-0.61	-0.86	-0.48	0.33
CCNC(=O)NCCSC[C@H]1O[C@@H](n2cnc3c(N)ncnc32)[C@H](O)[C@@H]1O	0.71	0.87	0.65	0	1	0.72
Cc1ncc(Cl)cc1NCc1ccc(C(=O)N[C@@H](CC2CCCC2)C(=O)NC2CC2)s1	0.59	0.85	0.64	0.26	0.37	0.86
CCN(c1cc(C#CCN2CCOCC2)cc(C(=O)NCc2c(C)cc(C)[nH]c2=O)c1C)[C@H]1CC[C@H](N(C)CCOC)CC1	0.57	0.74	1		1	0.81
CCCOc1ccc(CCc2nc3cc(-c4c(C)noc4C)ccc3n2CCN2CCOCC2)cc1	0.54	0.57	1	0.67	0.57	0.8
Cc1ccc(C(=O)NCCCCCC(=O)Nc2ccccc2N)cc1	1					0.95 and 0.84
O=C(NC[C@H](O)CN1CCc2ccccc2C1)c1cc(NC2COC2)ncn1	0.54	0.94	1	0.5	1	
O=c1[nH]ccc2cc(F)c(NS(=O)(=O)c3ccc(N4CC[C@@H](O)C4)s3)cc12	0.79	0.98	0.99	0.64	1	0.94
CS(=O)(=O)c1ccc(-c2cnc(NCc3ccco3)n3cnnc23)cc1	0.63	0.95	1	0.87	1	0.66
CC(=O)N1CCc2c(c(N3CCCc4cc(-c5cnn(C)c5)c(C(F)F)cc43)nn2C2CCOCC2)C1	0.61	0.51	0.79	1	1	0.89
CNC(=O)N1CCc2c(c(N3CCCc4cc(-c5cnn(C)c5)c(C(F)F)cc43)nn2C2CCOCC2)C1	0.56	0.52	1	0.36	0.76	1

Compound	Growth Rate (HEK-293T; replicate number 1)	Growth Rate (HEK-293T; replicate number 2)	Growth Rate (Fibroblast; replicate number 1)	Growth Rate (Fibroblast; replicate number 2)	Growth Rate (U2OS; replicate number 1)	Growth Rate (U2OS; replicate number 2)
Cc1cc2cc(NS(=O)(=O)c3ccc(C#N)cc3)ccc2n(C)c1=O	0.88		0.71	0.65	1	
Cc1ncsc1-c1ccc([C@H](C)NC(=O)[C@@H]2C[C@@H](O)CN2C(=O)[C@@H](NC(=O)COCCCOCCNC(=O)C[C@@H]2N=C(c3ccc(Cl)cc3)c3c(sc(C)c3C)-n3c(C)nnc32)C(C)(C)C)cc1	0.46	0.43	-0.26	-0.44	-0.38	0.03
Cc1ncsc1-c1ccc(CNC(=O)[C@@H]2C[C@@H](O)CN2C(=O)[C@@H](NC(=O)COCCOCCOCCNC(=O)C[C@@H]2N=C(c3ccc(Cl)cc3)c3c(sc(C)c3C)-n3c(C)nnc32)C(C)(C)C)cc1	0.01	0.16	0.23	-0.26	-0.19	0.31
FC(F)(F)Oc1ccc(Oc2ccnc(N3CCC(NC(=S)Nc4cccnc4)CC3)c2Cl)c(Cl)c1	-0.1	0.12	0.38	-0.07	0.35	0.56
Cc1nn(CC(F)(F)F)cc1Nc1ncc(Br)c(NCc2ccc(S(N)(=O)=O)cc2)n1	0.53	1	1		1	0.83
Cc1cc(-c2ccccc2)cc(C(=O)NNS(=O)(=O)c2ccccc2)c1F	0.49	0.81	1	0.27	0.87	0.89
O=C(NCCc1cc(C(=O)NO)no1)c1ccc(Cl)c(Cl)c1	0.99	1	1	0.22	0.33	1
C[C@H](Nc1cc(Cl)nc2c1cnn2[C@@H]1O[C@H](COP(=O)(O)CP(=O)(O)O)[C@@H](O)[C@H]1O)c1ccccc1F	0.88	1	0.88	1	1	
C[C@H]1CCCN1Cc1nc2cc(NC(=O)c3ccc4c(cnn4C)c3)ccc2[nH]1	0.37	0.49	1	0.78	0.16	0.68
N#Cc1ccc([C@H]2CCCC[C@H]2O)cc1C(F)(F)F	0.83	0.95	0.21	1	1	0.84
C[C@H](CN[C@@H](C(=O)Nc1ccc(-c2cnn(C)c2)cn1)c1ccccc1)c1ccc(C#N)cc1	0.04	0.3	0.34	-0.53	0.58	0.39
O=S(=O)(O)c1ccc2cc(/N=N/c3cc(S(=O)(=O)O)c4cccnc4c3O)ccc2c1	1		0.17	-0.42	-0.34	1
CCCOc1cccc(Oc2cc3c(cc2NS(=O)(=O)c2cccc(C(=O)NCCOCCOCCOCC(=O)N[C@H](C(=O)N4C[C@H](O)C[C@H]4C(=O)NCc4ccc(-c5scnc5C)cc4)C(C)(C)C)c2)n(C)c(=O)n3C)c1	0.11	0.31	1		0.91	0.63
O=C1/C(=N/Nc2ccc(S(=O)(=O)O)cc2)C(c2ccc([N+](=O)[O-])cc2)=NN1c1ccccc1	0.59	1	1		0.88	1
Cc1ncsc1-c1ccc(CNC(=O)[C@@H]2C[C@@H](O)CN2C(=O)[C@@H](NC(=O)COCC(C)(COCCOCCOCCNC(=O)C[C@@H]2N=C(c3ccc(Cl)cc3)c3c(sc(C)c3C)-n3c(C)nnc32)COCCOCCOCCNC(=O)C[C@@H]2N=C(c3ccc(Cl)cc3)c3c(sc(C)c3C)-n3c(C)nnc32)C(C)(C)C)cc1	1		1		0.43	0.95
CCCn1/c(=N/C(=O)c2cccc(C(N)=O)c2)[nH]c2ccccc21	0.77	0.9	1		1	0.99
Cn1c(=O)c2c(nc(N3CCNCC3)n2Cc2nnc(-c3ccc(Cl)c(Cl)c3)o2)n(C)c1=O	0.79	1	1		1	0.88
COc1cc(O)c2c(c1)/C=C\C[C@H](O)[C@H](O)C(=O)/C=C\C[C@H](C)OC2=O	-0.3	-0.25	-0.67	-0.85	-0.54	-0.35
